Assay results from patent US7166762B2, “Method of constructing heart failure model animal” (Takeda Pharmaceutical Company Limited, priority 2000, dated 2007).

Test system: β-receptor
Assay: Reactivity for dobutamine (β-receptor response, LVdp/dtmax) in anesthetized rats 1 week after the operation
Assay type: in vivo, rat
Conditions: i.v.; for reactivity of the β-receptor: difference in LVdp/dtmax between before and after administration (Δ): male JCL-Wistar rat, mean ± standard error
Procedure: A male JCL-Wistar rat (13 to 15 week-old) was anesthetized with pentobarbital (50 mg/kg, i.p.) and subjected to thoracotomy at the midline under artificial respiration. The pericardium was dissected to expose the heart, and the proximal portion of the ascending aorta was dissected. A thread was put through the proximal portion of the left coronary artery along with the cardiac muscle, with a needled suture, and the thread was ligated to occlude the coronary artery. Immediately after the occlusion of the coronary artery (within 5 minutes), a polyethylene tube having a length of 3 mm (outer diameter: 2.80 mm; inner diameter: 1.77 mm) was installed on the proximal portion of the ascending aorta to conduct stenosis of 40 to 50%. After that, close-chest operation was conducted, and the rat was returned to a breeding cage after spontaneous respiration had been confirmed, and bred for 1 week by a general procedure. The rats in which the recovery of spontaneous respiration had not been confirmed were excluded from the following analysis. After 1 week of the operation, to measure the hemodynamics, the rat was anesthetized with pentobarbital (40 mg/kg, i.p.). A tracheal cannula was inserted, then a mirror catheter having a pressure sensor (2F) was inserted from the right carotid artery to the left ventricle. The waveform of the left ventricular pressure was analyzed with a differential amplifier, and the maximum differential value (LVdp/dtmax) and the minimum differential value (LVdp/dtmin) were recorded.
On the other hand, in order to measure the blood pressure and to administrate a drug, a polyethylene tube was inserted to the left femoral artery and left femoral vein, respectively, and the heart rate carculated from the blood pressure pulse and the dipolar lead (II) electrocardiogram were recorded.
Dobutamime was dissolved in a solution of saline containing 0.01% of ascorbic acid, and the solution was administrated in a dose of 0.3 to 10 μg/kg i.v. to investigate the β-receptor response.
The basal hemodynamics after 1 week of the operation was represented by the value before the administration of dobutamime, and the reactivity of the β-receptor was represented by the difference between before and after the administration of dobutamime (Δ mmHg/sec) by the mean value±standard error.

- maximum reaction of LVdp/dtmax in the stenosis group as compared with the sham-operated group (all doses 0.3, 1.0, 3.0, 10 μg/kg, coronary + proximal aorta stenosis group vs sham-operated group): remarkably decreased
Structure (SMILES): CC(CCc1ccc(O)cc1)NCCc1ccc(O)c(O)c1 (stereo not drawn) [Dobutamine]
- reactivity of the β-receptor: difference in LVdp/dtmax between before and after administration (Δ) (0.3 μg/kg, group with coronary stenosis and stenosis of the proximal portion of the aorta): 278 ± 144 mmHg/sec
- reactivity of the β-receptor: difference in LVdp/dtmax between before and after administration (Δ) (0.3 μg/kg, sham-operated group): 2287 ± 8 mmHg/sec
- reactivity of the β-receptor: difference in LVdp/dtmax between before and after administration (Δ) (1.0 μg/kg, group with coronary stenosis and stenosis of the proximal portion of the aorta): 832 ± 501 mmHg/sec
- reactivity of the β-receptor: difference in LVdp/dtmax between before and after administration (Δ) (1.0 μg/kg, sham-operated group): 4127 ± 112 mmHg/sec
- reactivity of the β-receptor: difference in LVdp/dtmax between before and after administration (Δ) (3.0 μg/kg, group with coronary stenosis and stenosis of the proximal portion of the aorta): 1641 ± 794 mmHg/sec
- reactivity of the β-receptor: difference in LVdp/dtmax between before and after administration (Δ) (3.0 μg/kg, sham-operated group): 7135 ± 753 mmHg/sec
- reactivity of the β-receptor: difference in LVdp/dtmax between before and after administration (Δ) (10 μg/kg, group with coronary stenosis and stenosis of the proximal portion of the aorta): 2431 ± 1028 mmHg/sec
- reactivity of the β-receptor: difference in LVdp/dtmax between before and after administration (Δ) (10 μg/kg, sham-operated group): 7654 ± 999 mmHg/sec
